Laboratory results as given in PubChem BioAssay AID2060607 (Molecular Pharmacology Branch, DTP, NCI, 2025).
Blank lines part the entries; values can stand above or below the compound they belong to.

Test system: 876862-298-R-J1-PDC complex spheroids, viability % test/control
Test: Anticancer human tumor 876862-298-R-J1-PDC patient-derived endometrial carcinoma cell line growth inhibition [CLK]
Details: for IC50: curve of first compound; for viability, T/C: stronger effect = lower value
Summary of the method: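 Multi-cell-type spheroids combined patient-derived tumor cells with HUVEC endothelial cells and human mesenchymal stem cells. Paired agents were dosed in half-log steps down from about clinical Cmax, or from 10 microM where Cmax was unknown.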

[1] = second compound 0.0316 µM, first compound 0.0316 µM
[2] = second compound 0.0316 µM, first compound 0.1 µM
[3] = second compound 0.1 µM, first compound 0.0316 µM
[4] = second compound 0.1 µM, first compound 0.1 µM
[5] = second compound 0.316 µM, first compound 0.0316 µM
[6] = second compound 0.316 µM, first compound 0.1 µM
[7] = second compound 1 µM, first compound 0.0316 µM
[8] = second compound 1 µM, first compound 0.1 µM
[9] = second compound 3.16 µM, first compound 0.0316 µM
[10] = second compound 3.16 µM, first compound 0.1 µM
[11] = second compound 10 µM, first compound 0.0316 µM
[12] = second compound 10 µM, first compound 0.1 µM
[13] = second compound 0.0316 µM, first compound 0.316 µM
[14] = second compound 0.0316 µM, first compound 1 µM
[15] = second compound 0.0316 µM, first compound 3.16 µM
[16] = second compound 0.0316 µM, first compound 10 µM
[17] = second compound 0.1 µM, first compound 0.316 µM
[18] = second compound 0.1 µM, first compound 1 µM
[19] = second compound 0.1 µM, first compound 3.16 µM
[20] = second compound 0.1 µM, first compound 10 µM
[21] = second compound 0.316 µM, first compound 0.316 µM
[22] = second compound 0.316 µM, first compound 1 µM
[23] = second compound 0.316 µM, first compound 3.16 µM
[24] = second compound 0.316 µM, first compound 10 µM
[25] = second compound 1 µM, first compound 0.316 µM
[26] = second compound 1 µM, first compound 1 µM
[27] = second compound 1 µM, first compound 3.16 µM
[28] = second compound 1 µM, first compound 10 µM
[29] = second compound 3.16 µM, first compound 0.316 µM
[30] = second compound 3.16 µM, first compound 1 µM
[31] = second compound 3.16 µM, first compound 3.16 µM
[32] = second compound 3.16 µM, first compound 10 µM
[33] = second compound 10 µM, first compound 0.316 µM
[34] = second compound 10 µM, first compound 1 µM
[35] = second compound 10 µM, first compound 3.16 µM
[36] = second compound 10 µM, first compound 10 µM
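Note: spheroids exposed to drugs for 7 days before readout.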
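Throughout, for viability, T/C: 100% = DMSO vehicle control wells.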

IC50 (second compound 0.0316 µM): > 100 nM
IC50 (second compound 0.1 µM): < 0.316 nM
IC50 (second compound 0.316 µM): < 0.316 nM
IC50 (second compound 1 µM): < 0.316 nM
IC50 (second compound 3.16 µM): < 0.316 nM
IC50 (second compound 10 µM): < 0.316 nM
SMILES: Cn1ncnc1[C@H]1c2n[nH]c(=O)c3cc(F)cc(c23)N[C@@H]1c1ccc(F)cc1 + CNC(=O)c1ccc(Nc2nc(OC3CCCC3)c3c(-c4ccc5nc(C)oc5c4)c[nH]c3n2)c(OC)c1
viability, T/C (second compound 0.0316 µM, first compound 0.000316 µM): 67.3%
viability, T/C (second compound 0.0316 µM, first compound 0.001 µM): 84.6%
viability, T/C (second compound 0.0316 µM, first compound 0.00316 µM): 73.4%
viability, T/C (second compound 0.0316 µM, first compound 0.01 µM): 79.9%
viability, T/C [1]: 89.7%
viability, T/C [2]: 77.5%
viability, T/C (second compound 0.1 µM, first compound 0.000316 µM): 42.2%
viability, T/C (second compound 0.1 µM, first compound 0.001 µM): 45.4%
viability, T/C (second compound 0.1 µM, first compound 0.00316 µM): 46.7%
viability, T/C (second compound 0.1 µM, first compound 0.01 µM): 46.5%
viability, T/C [3]: 53%
viability, T/C [4]: 45.6%
viability, T/C (second compound 0.316 µM, first compound 0.000316 µM): 40.9%
viability, T/C (second compound 0.316 µM, first compound 0.001 µM): 44.5%
viability, T/C (second compound 0.316 µM, first compound 0.00316 µM): 46%
viability, T/C (second compound 0.316 µM, first compound 0.01 µM): 43.3%
viability, T/C [5]: 44.1%
viability, T/C [6]: 36.7%
viability, T/C (second compound 1 µM, first compound 0.000316 µM): 31.3%
viability, T/C (second compound 1 µM, first compound 0.001 µM): 32.9%
viability, T/C (second compound 1 µM, first compound 0.00316 µM): 30%
viability, T/C (second compound 1 µM, first compound 0.01 µM): 28.5%
viability, T/C [7]: 26.8%
viability, T/C [8]: 27.9%
viability, T/C (second compound 3.16 µM, first compound 0.000316 µM): 22.8%
viability, T/C (second compound 3.16 µM, first compound 0.001 µM): 23.2%
viability, T/C (second compound 3.16 µM, first compound 0.00316 µM): 19.6%
viability, T/C (second compound 3.16 µM, first compound 0.01 µM): 21.5%
viability, T/C [9]: 21.7%
viability, T/C [10]: 18.5%
viability, T/C (second compound 10 µM, first compound 0.000316 µM): 21.1%
viability, T/C (second compound 10 µM, first compound 0.001 µM): 22.4%
viability, T/C (second compound 10 µM, first compound 0.00316 µM): 20%
viability, T/C (second compound 10 µM, first compound 0.01 µM): 23.3%
viability, T/C [11]: 17.5%
viability, T/C [12]: 16.2%

IC50 (second compound 0.0316 µM): < 31.6 nM
IC50 (second compound 0.1 µM): < 31.6 nM
IC50 (second compound 0.316 µM): < 31.6 nM
IC50 (second compound 1 µM): < 31.6 nM
IC50 (second compound 3.16 µM): < 31.6 nM
IC50 (second compound 10 µM): < 31.6 nM
SMILES: Nc1ccn(C2OC(CO)C(O)C2(F)F)c(=O)n1 (stereo unspecified) + CNC(=O)c1ccc(Nc2nc(OC3CCCC3)c3c(-c4ccc5nc(C)oc5c4)c[nH]c3n2)c(OC)c1
viability, T/C [1]: 15.1%
viability, T/C [2]: 7.66%
viability, T/C [13]: 9.02%
viability, T/C [14]: 6.2%
viability, T/C [15]: 7.72%
viability, T/C [16]: 9.97%
viability, T/C [3]: 16.5%
viability, T/C [4]: 9.17%
viability, T/C [17]: 9.31%
viability, T/C [18]: 7.24%
viability, T/C [19]: 7.42%
viability, T/C [20]: 10.1%
viability, T/C [5]: 17.7%
viability, T/C [6]: 7.67%
viability, T/C [21]: 7.58%
viability, T/C [22]: 5.78%
viability, T/C [23]: 7.22%
viability, T/C [24]: 6.26%
viability, T/C [7]: 14.6%
viability, T/C [8]: 8.47%
viability, T/C [25]: 6.7%
viability, T/C [26]: 6.04%
viability, T/C [27]: 6.8%
viability, T/C [28]: 5.73%
viability, T/C [9]: 10.5%
viability, T/C [10]: 5.98%
viability, T/C [29]: 5.8%
viability, T/C [30]: 6.15%
viability, T/C [31]: 4.91%
viability, T/C [32]: 5.13%
viability, T/C [11]: 8.61%
viability, T/C [12]: 5.73%
viability, T/C [33]: 5.74%
viability, T/C [34]: 5.44%
viability, T/C [35]: 6.11%
viability, T/C [36]: 3.96%

IC50 (second compound 0.0316 µM): > 10000 nM
IC50 (second compound 0.1 µM): < 31.6 nM
IC50 (second compound 0.316 µM): < 31.6 nM
IC50 (second compound 1 µM): < 31.6 nM
IC50 (second compound 3.16 µM): < 31.6 nM
IC50 (second compound 10 µM): < 31.6 nM
SMILES: O=c1[nH]cc(F)c(=O)[nH]1 + CNC(=O)c1ccc(Nc2nc(OC3CCCC3)c3c(-c4ccc5nc(C)oc5c4)c[nH]c3n2)c(OC)c1
viability, T/C [1]: 68.7%
viability, T/C [2]: 84.1%
viability, T/C [13]: 81.4%
viability, T/C [14]: 94.6%
viability, T/C [15]: 57.9%
viability, T/C [16]: 49.6%
viability, T/C [3]: 46.7%
viability, T/C [4]: 49.5%
viability, T/C [17]: 49.2%
viability, T/C [18]: 45%
viability, T/C [19]: 45.3%
viability, T/C [20]: 41.6%
viability, T/C [5]: 49.7%
viability, T/C [6]: 42%
viability, T/C [21]: 41.9%
viability, T/C [22]: 40.5%
viability, T/C [23]: 40.1%
viability, T/C [24]: 38.5%
viability, T/C [7]: 31.5%
viability, T/C [8]: 32.2%
viability, T/C [25]: 32.5%
viability, T/C [26]: 31.1%
viability, T/C [27]: 24%
viability, T/C [28]: 24.7%
viability, T/C [9]: 25%
viability, T/C [10]: 25.9%
viability, T/C [29]: 22.9%
viability, T/C [30]: 19.9%
viability, T/C [31]: 18%
viability, T/C [32]: 14.2%
viability, T/C [11]: 20.3%
viability, T/C [12]: 21.2%
viability, T/C [33]: 20.1%
viability, T/C [34]: 21.6%
viability, T/C [35]: 17.6%
viability, T/C [36]: 13.6%
